Measurements from patent US10428151B2, “Treatment of hematologic malignancies with an anti-CXCR4 antibody” (BRISTOL-MYERS SQUIBB COMPANY, priority 2011, dated 2019).
Values joined by “and” are separate entries in the source; they are usually repeats but may differ in a detail not shown here. Identical values can stand only once.

Tests used:
Ramos tumor cells = assay: Ramos cell proliferation, 3H-thymidine incorporation; assay type: cell-based, human; conditions: 10^−3 to 300 nM; 72 hours
Procedure: In this example, the ability of the anti-CXCR4 human antibodies to inhibit proliferation of Ramos tumor cells (a human Burkitt's lymphoma cell line) in vitro was examined. […] The cells were incubated with antibody for 72 hours, with ^3H-thymidine being added for the final 24 hours of incubation to allow for monitoring of cell proliferation. Following the incubation, incorporation of ^3H-thymidine by the cells was measured by standard techniques. The results are shown in the graph of FIG. 11A.

Ramos cells [1] = assay: Ramos lymphoma xenograft in SCID mice; assay type: in vivo
Procedure: When a mean and median tumor size of 80 mm^3 was reached, the mice were randomized (n=8) according to tumor volume. […] Tumors and body weights were measured twice weekly. Tumor volumes were measured in three dimensions (L×W×H/2) with a Fowler Electronic Digital Caliper (Model 62379-531; Fred V. Fowler Co., Newton, Mass.), and data was electronically recorded using Study Director software from StudyLog Systems, Inc. (South San Francisco, Calif.). Animals were checked daily for postural, grooming, and respiratory changes, as well as lethargy. Mice were euthanized when the tumors reached the 2000 mm^3 endpoint or appeared ulcerated.

melanoma = melanoma xenograft model; compared to vehicle-treated mice; Roccaro et al., 2012; cited from earlier work
[2] = test system: SU-DHL-6 B cell lymphoma cells; assay: SU-DHL-6 subcutaneous xenograft; assay type: in vivo, mouse
Procedure: (§1) Additional subcutaneous xenograft tumor models were tested for the ability of anti-CXCR4 antibodies to inhibit tumor growth, in experiments similar to those described above and in Example 9. […] Although the tumor cells in vivo were stainable by the mAb by immunohistochemistry, it is unclear at what stage of their tumor growth CXCR4 began to be expressed.

[3] = test system: DMS79 human small cell lung carcinoma cells; assay: DMS79 small cell lung carcinoma xenograft; assay type: in vivo, mouse; conditions: Day 34 post-implantation; 10 mg/kg IP Q3D×5
Procedure: In a second experiment, 5×10^6 DMS79 human small cell lung carcinoma cells/mouse were implanted into the flank region of each mouse and allowed to grow to a mean size of 160 mm^3, calculated by length×width×height/2 of the tumors, which was day 7 post-implantation. The mice were randomized into different treatment groups and received intraperitoneal (IP) injections of antibody on a dosing schedule of Q3D×5 (every three days for five times). […] Tumor volumes were measured at regular intervals and the mean and median tumor volume determined for each treatment group at each interval.

RPMI-8226 cells = assay: RPMI-8226 MM xenograft in SCID mice; assay type: in vivo
Procedure: The mice were randomized (n=8) when the tumor volume reached approximately 20 mm^3, dosed on Days 0, 3, 7, 10 and 14 with MDX-1338 (10 mg/kg/dose) alone or in combination with 50 mg/kg lenalidomide or in combination with 0.8 mg/kg bortezomib.

[4] = test system: human peripheral blood mononuclear cells (PBMCs); assay: Flow cytometry binding to human PBMC subsets; conditions: 33 μg/ml; CD3+, CD20+, CD11b+, CD14+ subsets; vs isotype-matched control
Excerpt: Human PBMCs were isolated by standard methods and different cellular subsets were isolated by FACS. In particular, the following cellular subsets were isolated: (i) CD3^+, (ii) CD20^+; (iii) CD11b^+ and (iv) CD14^+.

[5] = test system: MDA-MB231 human breast cancer cells; assay: MDA-MB231 breast cancer xenograft; assay type: in vivo, mouse
Excerpt: In one experiment, 7.5×10^6 MDA-MB231 human breast cancer cells/mouse were implanted into the flank region of each mouse and allowed to grow to a mean size of 100 mm^3, calculated by length×width×height/2 of the tumors, which was day 7 post-implantation. The mice were randomized into different treatment groups and received an intraperitoneal (IP) injection of a first dose of antibody on day 7 post-implantation, received a second IP dose of antibody on day 14 post-implantation and then received a third dose on day 46 post-implantation. […] Tumor volumes were measured at regular intervals and the mean and median tumor volume determined for each treatment group at each interval.

Ramos cells [6] = assay: Ramos cell proliferation, Cell-Titer-Glo; assay type: cell-based, human; conditions: 40 nM; 72 hours; compared to isotype control
Procedure: Ramos cells were suspended at 1×10^5 cells/mL in growth media, incubated with the relevant antibodies, including isotype controls, and other test agents and cultured for 72 hours at 37° C. Cell-Titer-Glo (Promega) was added to wells, mixed, and incubated at room temperature for 10 minutes. The plate was read on a GloMax Luminometer (Promega).

MOLP-8 cells = assay: MOLP-8 MM xenograft in SCID mice; assay type: in vivo
Procedure: In all the experiments, the mice were injected intraperitoneally on Days 0 and 7 with an IgG4 isotype control and a PBS vehicle control.

[7] = test system: HPAC human pancreatic adenocarcinoma cells; assay: HPAC subcutaneous xenograft; assay type: in vivo, mouse
Procedure: as §1

CLL cells = conditions: Kashyap et al., 2012; cited from earlier work
[8] = Day 59 post-implantation, 15 mg/kg IP

Question: Which “inhibition of Ramos cell proliferation (3H-thymidine incorporation)” value (Ramos tumor cells) does the source give for “BMS-936564: fully human anti-CXCR4 monoclonal antibody; VH SEQ ID NO: 25, VL SEQ ID NO: 29” here?
Answer: able to inhibit Ramos cell proliferation

Question: What about the “time the inhibition was maintained” value (Ramos cells [1]; 15 mg/kg/dose IP Days 0 and 7) of the same substance?
Answer: 60 days

Question: What about the median growth inhibition (Ramos cells [1]; Day 21, 15 mg/kg/dose IP Days 0 and 7) of the same substance?
Answer: 99%

Question: And the “% Tumor Growth Inhibition (Monotherapy)” value (Ramos cells [1]; Ramos)?
Answer: 80%

Question: And the number of metastasis (melanoma)?
Answer: reduced number of metastasis

Question: What about the “% Tumor Growth Inhibition (Monotherapy)” value ([2]; DHL6) of the same substance?
Answer: 55% and 77%

Question: And the tumor growth inhibition ([2]; SU-DHL-6, 15 mg/kg)?
Answer: approximately 60%

Question: And the Mean tumor volume [3]?
Answer: 620 mm^3

Question: What about the Median tumor volume [3] of the same substance?
Answer: 599 mm^3

Question: What about the “TGI (%) (mean)” value [3] of the same substance?
Answer: 38%

Question: What about the “delay of mean tumor growth” value (RPMI-8226 cells; Day 44, 10 mg/kg/dose, compared to vehicle control) of the same substance?
Answer: 53%

Question: What about the “mean tumor growth inhibition” value (RPMI-8226 cells; Day 44, compared to isotype control, MDX-1338 10 mg/kg, lenalidomide 50 mg/kg, bortezomib 0.8 mg/kg) of the same substance?
Answer: 61%

Question: What about the “tumor growth inhibition” value (RPMI-8226 cells; RPMI-8226) of the same substance?
Answer: MDX-1338 = 61%

Question: What about the “binding to PBMC subsets” value [4] of the same substance?
Answer: capable of binding effectively to each of the four subsets

Question: And the Mean tumor volume ([5]; Day 52 post-implantation, 15 mg/kg IP)?
Answer: 79 mm^3

Question: And the Median tumor volume [5, 8]?
Answer: 108 mm^3

Question: What about the “TGI (%) (median)” value [5, 8] of the same substance?
Answer: 52%

Question: And the mice tumor free ([5]; day 59, n=9)?
Answer: one

Question: And the “maximum inhibition of Ramos cell proliferation” value (Ramos cells [6])?
Answer: about 50%

Question: What about the “delay of mean tumor growth” value (MOLP-8 cells; Day 25, 10 mg/kg/dose, compared to isotype antibody control, 10 mg/kg) of the same substance?
Answer: 66% and 56%

Question: And the “tumor growth inhibition” value (MOLP-8 cells; MOLP8)?
Answer: MDX-1338 = 56%

Question: What about the “% Tumor Growth Inhibition (Monotherapy)” value (MOLP-8 cells; MOLP-8) of the same substance?
Answer: 66%

Question: And the “mice remained at end of study” value (MOLP-8 cells; day 42)?
Answer: 5 out of 8

Question: And the tumor growth inhibition [7]?
Answer: no tumor growth inhibition

Question: And the “inhibition of CXCL12-mediated F-actin polymerization in CLL cells” value (CLL cells)?
Answer: at lower concentrations than with AMD-3100
